Laboratory results published in article PMC2774621, “Homogenous Fluorescent Assays for Characterizing Small-Molecule Activators of AMP-Activated Protein Kinase (AMPK)” (Current Chemical Genomics, 2008).

Experiments:
[1] = test system: rat-liver or recombinant AMPK (α1β1γ1); set-up: method as in PMID 16753576; details: read-out: EC50 of AMPK activation; cited from earlier work
[2] = molecular target: T1, AMPK α2β1γ1 (Homo sapiens, UniProt P54619+P54646); experiment: Radiometric kinase assay (SAMS peptide, 32P-ATP); assay type: biochemical
T1 construct: made in house; host or cells: Sf9 insect cells (baculovirus)
T1 sequence (P54646 whole entry): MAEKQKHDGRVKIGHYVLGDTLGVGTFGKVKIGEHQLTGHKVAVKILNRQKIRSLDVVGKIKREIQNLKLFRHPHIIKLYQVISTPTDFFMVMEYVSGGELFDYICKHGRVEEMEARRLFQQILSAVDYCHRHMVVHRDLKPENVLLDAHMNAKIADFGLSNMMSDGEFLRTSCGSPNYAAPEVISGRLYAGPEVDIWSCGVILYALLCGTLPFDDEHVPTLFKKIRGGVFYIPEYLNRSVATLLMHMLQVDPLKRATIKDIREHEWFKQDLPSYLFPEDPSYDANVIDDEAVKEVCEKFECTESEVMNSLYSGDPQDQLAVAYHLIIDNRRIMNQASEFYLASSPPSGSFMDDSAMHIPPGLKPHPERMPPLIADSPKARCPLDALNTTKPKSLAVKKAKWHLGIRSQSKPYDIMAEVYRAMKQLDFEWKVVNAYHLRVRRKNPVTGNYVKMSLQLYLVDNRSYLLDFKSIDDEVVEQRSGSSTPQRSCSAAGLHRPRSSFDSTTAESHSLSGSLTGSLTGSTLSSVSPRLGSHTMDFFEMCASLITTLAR
T1 sequence (Q9Y478 whole entry partner): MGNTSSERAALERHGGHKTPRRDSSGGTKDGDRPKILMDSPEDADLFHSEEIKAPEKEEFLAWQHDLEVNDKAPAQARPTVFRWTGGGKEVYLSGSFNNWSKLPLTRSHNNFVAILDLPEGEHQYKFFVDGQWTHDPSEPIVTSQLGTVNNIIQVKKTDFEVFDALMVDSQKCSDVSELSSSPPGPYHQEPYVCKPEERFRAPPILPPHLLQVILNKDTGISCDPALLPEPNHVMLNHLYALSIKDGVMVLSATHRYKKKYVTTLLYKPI
T1 sequence (P54619 whole entry): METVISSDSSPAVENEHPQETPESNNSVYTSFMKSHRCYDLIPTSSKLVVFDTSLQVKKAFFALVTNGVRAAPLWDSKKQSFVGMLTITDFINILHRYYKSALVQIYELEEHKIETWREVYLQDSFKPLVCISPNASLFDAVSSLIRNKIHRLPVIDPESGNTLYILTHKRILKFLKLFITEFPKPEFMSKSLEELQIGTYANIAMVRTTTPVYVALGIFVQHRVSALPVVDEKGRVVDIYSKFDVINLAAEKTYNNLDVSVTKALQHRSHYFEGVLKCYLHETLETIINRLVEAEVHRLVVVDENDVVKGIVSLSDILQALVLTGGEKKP
Method: (§1) Kinase reactions were performed at room temperature in 50 mM HEPES pH 7.5, 0.01% BRIJ-35, 10 mM MgCl2, and 1 mM EGTA in a 30 µL assay volume in 96-well plates. For the inhibition experiments, a 2-fold dilution series of inhibitor stock solutions was first prepared in 100% DMSO at 100-fold concentration of inhibitor to be used in the assay. Prior to the assay, 4 µL of each inhibitor concentration was further diluted to 100 µL in assay buffer to prepare a working stock of inhibitor in 4% DMSO at 4-fold the final assay concentration. For the activation experiments, activators were prepared in 100% H2O at 4-fold the concentration to be tested in the assay. Assays were performed as follows: 7.5 µL of the inhibitor or activator working stock was added to a 17.5 µL solution of assay buffer, substrate and [^32P]-ATP (0.5 µCi/well), followed by 5 µL of enzyme to start the assay. All assays were performed in triplicate. The final concentration of SAMS peptide substrate in the reaction was 200 µM. AMPK α1β1γ1 was used at 334 ng/mL (1.8 nM) in the inhibition experiments and 83.3 ng/mL (0.44 nM) in the activation experiments, at an ATP concentration of 35 µM. AMPK α2β1γ1 was used at 1670 ng/mL (8.9 nM) in the inhibition experiments and 267 ng/mL (1.4 nM) in the activation experiments, at an ATP concentration of 65 µM. After 10 minutes, 20 µL of the reaction was spotted onto a p81 filter. The filters were washed three times in 0.5% phosphoric acid, and twice in distilled water before being counted in Beckman Coulter Ready Safe liquid scintillation cocktail using a Beckman Coulter LS6500 Multipurpose Scintillation Counter. Scintillation Counter output (cpm) was used to calculate specific activity (nmole / (min•mg)).
(§2) Data analysis and curve-fitting was performed using GraphPad Prism software (GraphPad Software, Inc, San Diego CA).

[3] = molecular target: T2, AMPK α1β1γ1 (Homo sapiens, UniProt P54619+Q13131); experiment: TR-FRET activity assay (LanthaScreen, fluorescein-CREBtide); assay type: biochemical; details: ATP 50 µM, substrate 400 nM, read-out: Activator EC50
T2 construct: made in house; host or cells: Sf9 insect cells (baculovirus)
T2 sequence (Q13131 whole entry): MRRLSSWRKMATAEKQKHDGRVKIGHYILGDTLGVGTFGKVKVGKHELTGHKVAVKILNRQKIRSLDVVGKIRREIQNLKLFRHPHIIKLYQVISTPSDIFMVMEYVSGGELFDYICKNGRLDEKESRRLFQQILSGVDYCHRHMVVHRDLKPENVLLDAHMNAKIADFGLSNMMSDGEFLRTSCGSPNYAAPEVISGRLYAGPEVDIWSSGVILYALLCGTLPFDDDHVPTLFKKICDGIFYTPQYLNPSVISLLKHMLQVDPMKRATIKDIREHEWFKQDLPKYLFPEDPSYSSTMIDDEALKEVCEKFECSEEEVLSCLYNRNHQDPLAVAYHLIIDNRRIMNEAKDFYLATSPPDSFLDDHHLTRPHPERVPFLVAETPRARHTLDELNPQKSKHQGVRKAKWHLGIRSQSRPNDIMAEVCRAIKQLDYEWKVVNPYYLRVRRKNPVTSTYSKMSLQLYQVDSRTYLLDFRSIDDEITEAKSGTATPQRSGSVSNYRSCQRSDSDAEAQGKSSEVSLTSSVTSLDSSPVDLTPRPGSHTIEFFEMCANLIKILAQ
T2 sequence (Q9Y478 whole entry partner): as the sequence (Q9Y478 whole entry partner) above
T2 sequence (P54619 whole entry): as the sequence (P54619 whole entry) above
Method: (§3) Activators and inhibitors were prepared as described for the radiometric assay. Assays were performed as follows: 2.5 µL of the inhibitor or activator working stock was added to a 5 µL solution of kinase and substrate, followed by 2.5 µL of ATP to start the assay. Assays were performed in quadruplicate. […] After one hour, a 10 µL solution of EDTA and terbium labeled phospho-specific antibody in 20 mM Tris, pH 7.5 and 0.01% NP-40 was added to a final well volume of 20 µL, a final antibody concentration of 1 nM, and a final EDTA concentration of 10 mM. After a 30 minute incubation at room temperature the assay plate was read on a BMG Pherastar plate reader using the LanthaScreen™ filter module. The TR-FRET ratio was calculated as the intensity of the acceptor signal divided by the intensity of the donor signal.
as §2

[4] = molecular target: T1, AMPK α2β1γ1; experiment: as above; assay type: biochemical; details: TR-FRET, ATP 150 µM, substrate 400 nM; read-out: Activator EC50
Method: as §3, §2

[5] = molecular target: AMPK α1β1γ1 and α2β1γ1 (Homo sapiens, UniProt P54619+P54646); experiment: Summary statements across all assay formats (radiometric, TR-FRET, FRET, CHEF); assay type: biochemical; details: read-out: half-maximal stimulatory concentration; all assay formats
AMPK α1β1γ1 and α2β1γ1 (Homo sapiens, UniProt P54619+P54646), sequence (P54619 whole entry): as above
AMPK α1β1γ1 and α2β1γ1 (Homo sapiens, UniProt P54619+P54646), sequence (P54646 whole entry): as the sequence (P54646 whole entry) above
AMPK α1β1γ1 and α2β1γ1 (Homo sapiens, UniProt P54619+P54646), sequence (Q9Y478 whole entry partner): as the sequence (Q9Y478 whole entry partner) above
Method: as §1
(§4) Kinase reactions were performed in a 10 µL assay volume at room temperature in 384-well low volume plates (Corning model 3676) using the same assay buffer as the radiometric assay. Activators and inhibitors were prepared as described for the radiometric assay. Assays were performed as follows: 2.5 µL of the inhibitor or activator working stock was added to a 5 µL solution of kinase and substrate, followed by 2.5 µL of ATP to start the assay. Assays were performed in quadruplicate. The final concentration of fluorescein-labeled CREBtide peptide substrate (derived from residues 123-136 of CREB protein) in the reaction was 400 nM. AMPK α1β1γ1 was used at 600 ng/mL (3.1 nM) in the inhibition experiments and 200 ng/mL (1.1 nM) in the activation experiments, at an ATP concentration of 50 µM. AMPK α2β1γ1 was used at 5 µg/mL (26.5 nM) in the inhibition experiments and 600 ng/mL (3.2 nM) in the activation experiments, at an ATP concentration of 150 µM. After one hour, a 10 µL solution of EDTA and terbium labeled phospho-specific antibody in 20 mM Tris, pH 7.5 and 0.01% NP-40 was added to a final well volume of 20 µL, a final antibody concentration of 1 nM, and a final EDTA concentration of 10 mM. After a 30 minute incubation at room temperature the assay plate was read on a BMG Pherastar plate reader using the LanthaScreen™ filter module. The TR-FRET ratio was calculated as the intensity of the acceptor signal divided by the intensity of the donor signal.
(§5) Kinase reactions were performed in a 10 µL assay volume at room temperature in 384-well low volume plates (Corning model 3676) using the same assay buffer as the radiometric assay. Inhibitors and activators were prepared as described for the radiometric assays. Assays were performed as follows: 2.5 µL of the inhibitor or activator working stock was added to a 5 µL solution of kinase and substrate, followed by 2.5 µL of ATP to start the assay. All assays were performed in quadruplicate. The final concentration of Z’-LYTE™ S/T23 peptide substrate in the reaction was 2 µM. AMPK α1β1γ1 was used at 79 ng/mL (0.42 nM) in the inhibition experiments and 41 ng/mL (0.22 nM) in the activation experiments, at an ATP concentration of 50 µM. […]

[6] = molecular target: T3, AMPK α1β1γ1 and α2β1γ1 (Homo sapiens, UniProt P54619+P54646+Q9Y478); experiment: as above; assay type: biochemical; details: α2β1γ1 isoform
T3 construct: made in house; host or cells: Sf9 insect cells (baculovirus)
T3 sequence (P54646 whole entry, canonical isoform): as the sequence (P54646 whole entry) above
T3 sequence (Q9Y478 whole entry, canonical isoform): as the sequence (Q9Y478 whole entry partner) above
T3 sequence (P54619 whole entry, canonical isoform): as the sequence (P54619 whole entry) above
Method: as §1, §4, §5

[7] = molecular target: T4, AMPK α1β1γ1 and α2β1γ1 (Homo sapiens, UniProt P54619+Q13131+Q9Y478); experiment: as above; assay type: biochemical; details: α1β1γ1 isoform, any formats
T4 construct: made in house; host or cells: Sf9 insect cells (baculovirus)
T4 sequence (Q13131 whole entry, canonical isoform): as the sequence (Q13131 whole entry) above
T4 sequence (Q9Y478 whole entry, canonical isoform): as the sequence (Q9Y478 whole entry partner) above
T4 sequence (P54619 whole entry, canonical isoform): as the sequence (P54619 whole entry) above
Method: as §1, §4, §5

[8] = test system: partially purified human AMPK; set-up: method as in PMID 8185610; details: cited from earlier work
[9] = test system: partially purified rat AMPK; set-up: method as in PMID 8185610; details: cited from earlier work

SMILES	EC50 [1] [µM]	EC50 [2] [µM]	Max. fold-activation ([2]; radiometric, ATP 65 µM, SAMS 200 µM) [fold]	EC50 [3] [µM]	EC50 [4] [µM]	EC50 [5] [µM]	maximal extent of activation [6] [fold]	activation before inhibiting kinase activity to below basal levels [7]	fold stimulation (maximal extent of activation) [8] [fold]	fold stimulation (maximal extent of activation) ([9]; partially purified rat AMPK) [fold]	EC50 ([9]; rat AMPK, read-out: half-maximal stimulatory concentration) [µM]
N#Cc1c(O)c2c(-c3ccc(-c4ccccc4O)cc3)csc2[nH]c1=O [A-769662]	~0.8	–	–	–	–	–	–	–	–	–	–
Nc1ncnc2c1ncn2[C@@H]1O[C@H](COP(N)(=O)O)[C@@H](O)[C@H]1O [APR, adenosine 5′-monophosphoramidate]	–	194	1.9	722	43	> 50	2 to 3	negligible activation	2.25	1.5	1.9
